Data on two compounds can be found in publication PMC6445163, “Design, synthesis, and evaluation of novel 2-phenylpropionic acid derivatives as dual COX inhibitory-antibacterial agents” (Journal of Enzyme Inhibition and Medicinal Chemistry, 2017).

The target in one series is T1, COX-1 (Ovis aries, UniProt P05979).
T1 construct: purchased Biovision K548-100
T1 sequence (P05979 25-600): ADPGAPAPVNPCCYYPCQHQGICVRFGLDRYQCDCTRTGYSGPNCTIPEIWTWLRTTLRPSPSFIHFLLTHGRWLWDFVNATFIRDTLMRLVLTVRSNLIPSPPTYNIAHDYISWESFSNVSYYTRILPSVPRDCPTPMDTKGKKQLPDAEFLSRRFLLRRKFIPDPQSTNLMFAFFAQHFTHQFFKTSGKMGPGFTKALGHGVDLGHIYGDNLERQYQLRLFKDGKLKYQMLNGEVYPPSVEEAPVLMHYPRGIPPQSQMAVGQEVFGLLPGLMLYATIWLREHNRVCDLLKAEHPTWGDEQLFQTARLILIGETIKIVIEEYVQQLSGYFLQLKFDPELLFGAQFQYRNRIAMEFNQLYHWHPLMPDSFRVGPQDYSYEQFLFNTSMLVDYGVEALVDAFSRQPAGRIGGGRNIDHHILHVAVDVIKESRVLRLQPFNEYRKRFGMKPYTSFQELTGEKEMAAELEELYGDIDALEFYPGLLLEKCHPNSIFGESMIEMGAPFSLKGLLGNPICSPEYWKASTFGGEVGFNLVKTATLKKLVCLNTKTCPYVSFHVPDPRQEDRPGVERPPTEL
The experiment in a line: fluorometric COX-1 inhibitor screening kit assay. In kind it is biochemical. Particulars: for SI (selectivity index): IC50 (COX-1)/IC50 (COX-2); for IC50: fluorometric kit, 25 °C; for Selectivity: isoform preferred according to SI.

The subject of series [1] is TA100 (base-pair substitutions). The experiment in a line: Ames MPF mutagenicity assay, TA100. The class given is cell-based, Salmonella typhimurium. Particulars: Salmonella typhimurium; each concentration, with and without S9; read-out: Fold inductions over baseline, TA 100. The procedure:
Salmonella typhimurium strains, TA98 (frameshift mutations) and TA100 (base-pair substitutions), are used in this assay. Concentration range of the compounds was between […] and 5000 µg/mL according to the previous guidelines. Compounds were prepared in six different concentrations (5, 2.5, 1.25, 0.625, 0.3125 and 0.156 mg/mL) in DMSO. Mutagenic potential was determined in absence and presence of Aroclor™-1254 induced male Sprague–Dawley rat liver microsomal enzyme (S9) mix (Xenometrix AG, Switzerland). Positive controls without S9 mix were 2-Nitrofluorene (2 µg/mL) and 4-nitroquinoline N-oxide (0.1 µg/mL) whereas 1 and 2.5 µg/mL of 2-aminoanthracene solutions were used as positive controls with S9 against TA 98 and TA100, respectively. Solvent control was prepared with 4% DMSO. At the end of the experiment, revertant bacteria dropped the pH of solution and indicator medium color was changed to yellow. Yellow wells were counted as positive and compared with the negative control. Fold induction over the negative control and fold induction over the baseline were calculated. Fold induction over the negative control is the ratio of the mean number of positive wells for the dose concentration divided by the mean number of positive wells for the zero dose (negative) control. Fold induction over the baseline is the ratio of the mean number of positive wells for the dose concentration divided by zero dose baseline. The zero dose baseline is obtained by adding one standard deviation to the mean number of positive wells of the zero dose control. Mutagenicity was determined according to the criteria from previous studies[52]^,[56]. For a value ≤3 and significant increases between two and three-fold the baselines were classified as a weak mutagen, and increases ≥ three-fold the baselines were classified as a mutagen. […] As a rule, at least two adjacent doses with significant increases or a significant increase at the highest dose level should be observed for a mutagenic compound. All doses were compared according to Student’s t-test at p < .05 for statistical significance.
Ames assay was performed to investigate the genotoxicity of compounds 6h and 6l.

Where only a bound is given, the exact number is not on record here.

With `COc1ccc2sc(SCc3ccc(C(C)C(=O)O)cc3)nc2c1` (stereo not shown) [Compound 6h, 2-(4-(((5-Methoxybenzo[d]thiazol-2-yl)thio)methyl)phenyl)propanoic acid], on COX-1, the “SI (selectivity index)” value was found to be 0.59, half-maximal inhibition (IC50) was put at 1.76 µM and the Selectivity result is given as “COX-1”.
With `COc1ccc2[nH]c(SCc3ccc(C(C)C(=O)O)cc3)nc2c1` (stereo not shown) [Compound 6l, 2-(4-(((5-Methoxy-1H-benzo[d]imidazol-2-yl)thio)methyl)phenyl)propanoic acid], on COX-1, the “SI (selectivity index)” value is given as 0.60, the half-inhibitory concentration (IC50) turned out to be 1.4 µM and the Selectivity entry is “COX-1”. Besides, the fold induction in series [1] was below 1.5.
